Test results as given in patent publication EP4506341A1, “TISSUE REGENERATION APPROACHES” (ZeCardio Therapeutics SL, priority 2023, dated 2025).

Experiments:
H9C2 cells = experiment: MTT proliferation assay in Tob1 expressing (control) H9C2 cells; type: cell-based, rat; conditions: for H9C2 % Proliferation (normalized to control): 4 microMolar, MTT assay after 144 hours, increase above control values; for EC50 in H9C2 cells lower than EC50 in Tob1 KO H9C2 cells (selectivity for Tob1): H9C2 control vs Tob1 KO H9C2 cells, MTT; for EC50: Rattus norvegicus, H9C2 control cells, proliferation by MTT, 144 hours, 1,28 nM to 20 µM
Description: (§1) 3-(4,5-dimethylthiazol-2-yl)-2,5-diphenyltetrazolium bromide, MTT (Sigma, M5655-500MG) assay was used as a surrogate to evaluate cell number and cell proliferation in H9C2 and MCF-7 cells. MTT is a colorimetric assay that measures cell metabolic activity in viable cells, resulting from the activity of mitochondrial dehydrogenases which cleave the tetrazolium ring of the yellow tetrazolium salt MTT, yielding formazan crystals. The protocol was designed to align Tob1 peak decrease in mRNA expression levels (48-96 hours post-transfection) with the period of exponential growth of the cells (24-72 hours post-replating).
(§2) MCF-7 cells and H9C2 cells were seeded at 100,000 cells/well in 24-well in DMEM + 10% FBS plates to reach 80-90% at time of transfection. MCF-7 and H9C2 cells were transfected 24 hours post-plating with Silencer® Select siRNAs to knock down Tob1. 48 hours post-transfection, cells were lifted and plated at 10000 (MCF-7) and 8000 cells/well (H9C2) in 96-well plates and grown for 144 hours. At day 6 (144 hours), 0,5 mg/ml MTT was added and incubated for 3 hours, producing formazan crystals that were solubilized with SDS 20%+ HCl 0.02N. 24 hours later, absorbance was measured at 590 nm with the spectrophotometer FLUOstar Omega plate reader (BMG LabTech).
(§3) Both Tob1 expressing and Tob1 knockout H9C2 cells were seeded at 8000 cells/well in 96-well plates. 48 hours later, cells were treated with 1.28 nM; 6.4 nM; 32 nM, 160nM, 800 nM, 4 µM and 20 µM ZXR-807, ZXR-810; ZXR-081 and ZXR-090 and cell proliferation was measured 144 hours post-treatment using the MTT assay as described above.
Once lead compounds were selected, their efficacy, potency and selectivity at promoting proliferative responses, were evaluated in vitro in rat cardiomyoblasts (H9C2 cells) using MTT assay. H9C2 cells were treated with vehicle 0,3% DMSO and increasing concentrations of Tob1 inhibitors: ZXR-807, ZXR-810, ZXR-081 and ZXR-090, (1,28 nM to 20 µM), followed by the assessment of proliferation, using the MTT assay, after cells were left to grow for 144 hours (6 Days).

Tob1 KO H9C2 cells = experiment: MTT proliferation assay in Tob1 knockout H9C2 cells; type: cell-based; conditions: Rattus norvegicus; Tob1 depleted (KO) H9C2 cells; proliferation by MTT, 144 hours
Description: 100.000 H9C2 cells were plated in a 24 well plate day before transfection with lipofectamine CRISPRMAX™ (Thermofisher, CMAX00001), to obtain a 70% of confluence. The CRISPRMAX™ assay was performed following the manufacturer's instructions. Briefly Cas9 nuclease/gRNA RNP complexes were prepared by combining the following components , 3,85 µ! of 2 µM Alt-R S.p. Cas9 Nuclease v3 (1081059, IDT)1; 2,25 µ! of 2 µM sgRNAs (Tob1 sgRNA1: […] (SEQ ID NO: 3) and Tob1 sgRNA2: […] (SEQ ID NO: 4), negative control: GCACUACCAGAGCUAA (SEQ ID NO: 5), Synthego), 2,5 µ! Cas9 plus reagent in 16,65 µl Opti-MEM™(Gibco™; Life Technologies, Grand Island, NY, USA) in tube 1 and 1,5 µl lipofectamine CRISPRMAX™ in 25 µ! in Opti-MEM™ in tube 2. The Cas9/sgRNA ribonucleoprotein (RNP) complex was obtained by incubating the mix of tub1 and 2 for 10 minutes at room temperature. 50 µL of the RNP complex was added to cells in 450 µL of fresh high glucose DMEM (ATCC, 30-2002), supplemented with 10 % FBS and without antibiotics and cells were incubated with the RNP complex for 48 h at 37 °C.
as §1
as §2, with “At day 6 (144 hours), 0,5 mg/ml MTT was added and incubated for 3 hours, producing formazan crystals that were solubilized with SDS 20%+ HCl 0.02N.” left out
as §3
Tob1 inhibitors selectivity was assessed by comparing dose-responses of ZXR-807, ZXR-810, ZXR-081 and ZXR-090 in H9C2 control cells and H9C2 Tob1 KO cells where Tob1 was depleted by CRISPR/Cas9 technology. […]

Cdk1 = experiment: Real time PCR of proliferation marker gene Cdk1 in H9C2 cells; type: cell-based, rat; conditions: 100 nM in H9C2 cells; for Cdk1 mRNA expression increase: normalized to vehicle-treated cells
Description: (§4) In order to evaluate 1) efficiency of Tob1 knockdown in MCF-7 and H9C2 cells and 2) expression levels of proliferation markers (Pcna, Cdk1 and Ccnb1) in H9C2 cells treated with the compounds of the invention, H9C2 cells were harvested by trypsinization and centrifuged at 300 x g for 5 min. Total mRNA was isolated using the Maxwell 16 LEV simplyRNA Cells Kit or Tissue Kit (Promega, Madison, WI) following the manufacturer's instructions. Nanodrop ND-1000 Spectrophotometer (Thermo Fisher Scientific, Waltham, MA) was used to quantity the amount of RNA extracted. cDNA synthesis was performed from 300 ng of total RNA with the SuperScript IV First-Strand Synthesis System (Thermo Fisher Scientific, Waltham, MA).
(§5) Real-time PCR was conducted using LightCycler 480 SYBR Green I Master on a LightCycler 480 thermal cycler (Roche, Basel, Switzerland). The expression levels of the indicated genes were calculated by the conventional 2^-DDCt method, with normalization to housekeeping gene glyceraldehyde-3-phosphate dehydrogenase (GAPDH).

hiPSC cardiomyocytes [1] = experiment: CellTiter-Glo proliferation assay in hiPSC-CMs; type: cell-based, Human; conditions: 8nM
Description: Human Induced pluripotent stem-cell derived (iPS-CMs) cardiomyocytes (iCell® Cardiomyocytes, Cat. No. 11713) were purchased from FUJIFILM Cellular Dynamics. hiPSC Cardiomyocytes were seeded into 96 well plates coated with 0,1% gelatin (STEMCELL tech, 07903) with iCell Cardiomyocytes plating medium (Fujifilm, M1001). After 48 hours, the medium was changed to iCell Cardiomyocytes maintenance medium (Fujifilm, M1003) and cells were cultured for 2 weeks with media replacement every 48-72 hours. Cells were maintained in a humidified incubator (Thermo Scientific,HERACELL 150i) in a 95% air 5% CO2 environment at 37 °C
CellTitler-Glo® (Promega, G7570) was used to measure the activity of the compounds of the invention in triggering proliferation in hiPSC-CMs. The CellTiter-Glo® Luminescent Cell Viability Assay, similar to the MTT assay but with higher sensitivity, determines the number of metabolically active and viable cells, and is based on the quantification of ATP levels in the cells.
hiPSC-CMs were seeded at 7000 cells/well in 96-well plates and treated with the compounds of the invention at 8; 40 and 200nM in a 0.3% DMSO containing iCell Cardiomyocyte medium and a control treatment or vehicle with 0.3% DMSO in iCell cardiomyocyte medium. hiPSC-CMs proliferation was measured after 144h (6 days) , and 336 (14 days) of treatment. At each time point, 100 µL of CellTiter Glo (ratio 1:1 CellTiter Glo: cell culture medium ) was added to each well containing 100 µL iCell Cardiomyocyte medium, following the manufacturer's instructions. Luminescence was read in Varioskan (Thermo Fisher Scientific), 30 minutes after adding the reagent.

Ki67 = experiment: Nuclear Ki67 immunostaining in hiPSC-CMs after migration assay; type: cell-based, Human; conditions: 8 nM, 144 hrs, hiPSC cardiomyocytes
Description: (§6) hiPSC-CMs cells were seeded at 25,000 cells per well in 96 wells plates. 168 hours after seeding, cells were scraped with a 200 µL tip and treated with 8, 40 and 200nM ZXR-807, ZXR-810, ZXR-081 and ZXR-090. Plates were imaged with an inverted microscope (Leica, DMI6000B) right after generating the wound (0 h) and 144 hours post-scraping.
Following the migration assay, the medium was aspirated from the 96-well plates, and cells were washed twice with phosphate buffered saline solution (PBS) 1x (Fisher bioreagents, BP399-4). Cells were fixed with 4% paraformaldehyde (Sigma, 158127) for 10 minutes at room temperature and washed 3 times with PBS 1x. Cells were permeabilized with Triton™ X-100, 0.03% (Merck, T8787) and blocked with 0.5% Goat serum (ThermoFisher, 16210064) in PBS 1x, during 1 hour at room temperature. The primary antibodies Ki67 rabbit antibody 1/100 (Santacruz, sc-23900), and cardiac Troponin (cTnT mouse antibody 1/100 (ThermoFisher, MA5-12960) were diluted in the following buffer: Triton™ X-100 0.03% and 1% Bovine serum albumin (BSA) 10% (nzytech, MB04602) and PBS 1x. hiPSC-CMs were incubated with the primary antibodies overnight at 4°C, washed three times with PBS 1x and incubated with the secondary antibodies goat anti-mouse or anti -rabbit coupled to Alexa fluorescent dyes (company). DAPI 1/1000 (Merck, D9542-5MG) was incubated for 20 min at room temperature to visualize nuclei. Cells were washed out 3x with PBS and kept in PBS at 4°C.
Preparations were examined on a fluorescent inverted microscope Leica, DMI6000B using 20x dry objectives from Leica. Images were analyzed with the open source image processing package Fiji to quantify Nuclear Ki67 fluorescent intensity and cellular cardiac troponin T (cTnT) normalized to the number of nuclei in the field of view

hiPSC cardiomyocytes [2] = experiment: Cell migration (wound healing) assay in hiPSC-CMs; type: cell-based, Human; conditions: 8 nM, 144 hours
Description: as §6
All images were analyzed using the Fiji software (Schindelin et al., 2012) and the amount of cellular migration was determined by calculating the wound area at 0h and 28 hours or 144 hours and normalized to control vehicle-treated cells (0,3% DMSO).

Ccnb1 = experiment: Real time PCR of proliferation marker gene Ccnb1 in H9C2 cells; type: cell-based, rat; conditions: 100 nM in H9C2 cells
Description: as §4, §5

SMILES	H9C2 % Proliferation (normalized to control) (H9C2 cells)	EC50 in H9C2 cells lower than EC50 in Tob1 KO H9C2 cells (selectivity for Tob1) (H9C2 cells)	EC50 (Tob1 KO H9C2 cells)	Cdk1 mRNA expression increase (Cdk1)	increase of proliferation rate of hiPSC cardiomyocytes (hiPSC cardiomyocytes [1]; 144 hours (6 days))	time course of effect on proliferation increase (in words) (hiPSC cardiomyocytes [1]; peaking at 144 hours and disappearing by 336 hours)	nuclear Ki67 expression away from the scratch (Ki67)	nuclear Ki67 signal intensity close to the scratch (Ki67)	cell migration of hiPSC-CMs (in words) (hiPSC cardiomyocytes [2])	EC50 (H9C2 cells)	Ccnb1 expression (in words) (Ccnb1)	transcriptional activation of Cdk1 (in words) (Cdk1)	increase of proliferation rate of hiPSC cardiomyocytes (hiPSC cardiomyocytes [1]; 336 hours (14 days))
Cl.N[C@H]1C[C@@H](C(=O)N2CCOCC2)[C@H](c2ccc(Cl)cc2)C1 (relative stereo) [ZXR-081, rel-[(1R,2R,4R)-4-amino-2-(4-chlorophenyl)cyclopentyl]-morpholino-methanone hydrochloride]	36,6%	< 60,000	177 nM	about 3 fold	20-28%	transitory effect	increased	significantly increased	activate cell migration				
CC(=O)N[C@H]1C[C@@H](C(=O)N2CCOCC2)[C@H](c2ccc(Cl)cc2)C1 (relative stereo) [ZXR-090, rel-N-[(1R,3R,4R)-3-(4-chlorophenyl)-4-(morpholine-4-carbonyl)cyclopentyl]acetamide]	26,6%	200-300	62.8 nM	about 3 fold					activate cell migration	0.128 nM	more moderately increased		
N[C@H]1C[C@@H](C(=O)N2CCSCC2)[C@H](c2ccc(Cl)cc2)C1 (relative stereo) [ZXR-807, rel-[(1R,2R,4R)-4-amino-2-(4-chlorophenyl)cyclopentyl]-thiomorpholino-methanone]	27,4%	< 60,000	82.8 nM		20-28%		increased		activate cell migration		more moderately increased	promote the transcriptional activation	40%
CC(C)N(C)C(=O)[C@@H]1C[C@H](N)C[C@H]1c1ccc(Cl)cc1 (relative stereo) [ZXR-810, rel(1R,2R,4R)-4-amino-2-(4-chlorophenyl)-N-isopropyl-N-methyl-cyclopentanecarboxamide]	26.5%	200-300	62.8 nM		20-28%		increased		activate cell migration	0.62 nM	more moderately increased	promote the transcriptional activation	40%
